Earlier results as cited in patent publication US20040229771A1, “Method of reducing decline of or preserving residual renal function” (priority 2003, published 2004).

Test system: cell culture
Conditions: cell culture experiments, reference (2)

Question: With `O=CC(=O)C=CC(O)CO` (stereo not shown) [3,4-DGE, 3,4-dideoxyglucosone-3-ene] as the compound, how does the immunosuppressive effects read?
Answer: immunosuppressive effects
